# From PubChem BioAssay AID2060504 (Molecular Pharmacology Branch, DTP, NCI, 2025)
# System: 636577-100-R-J1-PDC complex spheroid viability
# Assay: Anticancer human tumor 636577-100-R-J1-PDC patient-derived endometrial adenocarcinoma cell line growth inhibition [GQUAD]
# Conditions: for IC50: curve of first compound; for viability, T/C: stronger effect = lower value
# Excerpt: DNA G-quadruplex Stabilizer Agents in Combinations in Complex Spheroids
# A high-throughput screen of multi-cell type tumor spheroids was designed to identify active combinations of DNA G-quadruplex stabilizer agents and targeted small molecules. Complex spheroids include a stromal component modeled by human endothelial cells (HUVEC) and fibroblasts modeled by human mesenchymal stem cells (MSCs). The concentration ranges selected for each drug and investigational agent were based upon clinically achievable concentrations if the clinical Cmax of the agent was known.
# Compounds. The drugs and investigational agents: pidnarulex (CX-5461; NSC782164), APTO-253 (NSC789042), BRACO-19 (NSC847499), peposertib (NSC802822), ceralasertib (NSC780249), elimusertib (NSC800525), camonsertib (NSC841442), AZD-1390 (NSC803789), olaparib (NSC753686), talazoparib (NSC767125), ART-558 (NSC835418), sotorasib (NSC818433), MRTX-1133 (NSC836407), SN-38 (NSC673596), topotecan (NSC609699), etoposide (NSC141540), doxorubicin (NSC123127), gemcitabine (NSC613327), 5-fluorouracil (NSC19893), paclitaxel (NSC125973), vemurafenib (NSC761431), panobinostat (NSC761190), R-306465 (JNJ-16241199; NSC773264), adavosertib (NSC754352), TP-3654 (NSC805149), carboplatin (NSC241240), KSQ-4279 (NSC840948), and staurosporine (NSC755774) were obtained from the National Cancer Institute (NCI) Developmental Therapeutics Program Chemical Repository (34). The FDA-approved anticancer drug set is available from the NCI Developmental Therapeutics Program. […] The stock solutions were prepared in dimethyl sulfoxide (DMSO, Sigma-Aldrich, St. Louis, MO, cat. D2650) at 800-fold the tested concentration and stored at -70 degrees C prior to their use. All drugs and investigational agents were tested over a range starting from a high concentration at or near the clinical Cmax and decreasing in half-log increments. If the clinical Cmax for an agent had not been determined, the highest concentration tested was 10 microM.
# 2.3 Cell Culture. All cells were maintained in an incubator at 37 degrees C and 5% CO2 with 95% humidity. The PDC lines were cultured according to standard operating procedures established by the NCI PDMR. All PDCs were thawed and cultured in Matrigel-coated flasks prepared with a working solution of 1X Ham's F-12 nutrient mix, without supplementation (Invitrogen, cat. 11765054), 100 U/mL penicillin-streptomycin (Invitrogen, cat. 15140122), and 2.5% Matrigel (Corning Inc., cat. 354248) for the first three passages. The 857933-349-R-J2-PDC line was cultured in 6C/Colon 1B media, which includes advanced DMEM/F-12 (Thermo Fisher Scientific, cat. 12634028), 10 mM HEPES (Thermo Fisher Scientific, cat. 15630080), 1X GlutaMAX supplement (Thermo Fisher Scientific, cat. 35050061), 0.1 mg/mL primocin (InvivoGen, cat. ant-pm-2), 10% defined fetal bovine serum, heat inactivated (HyClone Laboratories Inc., cat. SH30070.03HI), 50% L-WRN conditioned media (ATCC, cat. CRL-3276), 1.25 mM N-Acetyl-L-cysteine (Sigma-Aldrich, cat. A9165), 10 mM nicotinamide (Sigma-Aldrich, cat. N0636), 1X B-27 supplement (Thermo Fisher Scientific, cat. 17504044), 1X N-2 supplement (Thermo Fisher Scientific, cat. 17502048), 10 microM Y-27632 dihydrochloride (Tocris Bioscience, cat. 1254), and 50 ng/mL human EGF recombinant protein (Thermo Fisher Scientific, cat. PHG0311). The 485176-168-R4-J1-PDC line was cultured in Panc media, which includes all 6C/Colon 1B media components plus 100 ng/mL human FGF-10 (Thermo Fisher Scientific, cat. 100-26), 500 nM SB-431542 (Selleckchem, cat. S1067), and gastrin (Tocris, cat. 3006).
# […]
# [1] = second compound 0.0316 µM, first compound 0.0316 µM
# [2] = second compound 0.0316 µM, first compound 0.1 µM
# [3] = second compound 0.0316 µM, first compound 0.316 µM
# [4] = second compound 0.0316 µM, first compound 1 µM
# [5] = second compound 0.0316 µM, first compound 3.16 µM
# [6] = second compound 0.0316 µM, first compound 10 µM
# [7] = second compound 0.1 µM, first compound 0.0316 µM
# [8] = second compound 0.1 µM, first compound 0.1 µM
# [9] = second compound 0.1 µM, first compound 0.316 µM
# [10] = second compound 0.1 µM, first compound 1 µM
# [11] = second compound 0.1 µM, first compound 3.16 µM
# [12] = second compound 0.1 µM, first compound 10 µM
# [13] = second compound 0.316 µM, first compound 0.0316 µM
# [14] = second compound 0.316 µM, first compound 0.1 µM
# [15] = second compound 0.316 µM, first compound 0.316 µM
# [16] = second compound 0.316 µM, first compound 1 µM
# [17] = second compound 0.316 µM, first compound 3.16 µM
# [18] = second compound 0.316 µM, first compound 10 µM
# [19] = second compound 1 µM, first compound 0.0316 µM
# [20] = second compound 1 µM, first compound 0.1 µM
# [21] = second compound 1 µM, first compound 0.316 µM
# [22] = second compound 1 µM, first compound 1 µM
# [23] = second compound 1 µM, first compound 3.16 µM
# [24] = second compound 1 µM, first compound 10 µM
# [25] = second compound 3.16 µM, first compound 0.0316 µM
# [26] = second compound 3.16 µM, first compound 0.1 µM
# [27] = second compound 3.16 µM, first compound 0.316 µM
# [28] = second compound 3.16 µM, first compound 1 µM
# [29] = second compound 3.16 µM, first compound 3.16 µM
# [30] = second compound 3.16 µM, first compound 10 µM
# [31] = second compound 10 µM, first compound 0.0316 µM
# [32] = second compound 10 µM, first compound 0.1 µM
# [33] = second compound 10 µM, first compound 0.316 µM
# [34] = second compound 10 µM, first compound 1 µM
# [35] = second compound 10 µM, first compound 3.16 µM
# [36] = second compound 10 µM, first compound 10 µM
# 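Also: viability read after seven days of drug exposure.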
# 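For viability, T/C in this document: luminescence signal used as a proxy for viable cells; 100% = DMSO vehicle control wells.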
compound,measurement,setting,value
C=CCn1c(=O)c2cnc(Nc3ccc(N4CCN(C)CC4)cc3)nc2n1-c1cccc(C(C)(C)O)n1 + Cc1[nH]c2ccc(F)cc2c1-c1nc2c3cccnc3c3ncccc3c2[nH]1,IC50,second compound 0.0316 µM,825 nM
same,IC50,second compound 0.1 µM,746 nM
same,IC50,second compound 0.316 µM,580 nM
same,IC50,second compound 1 µM,202 nM
same,IC50,second compound 3.16 µM,< 31.6 nM
same,IC50,second compound 10 µM,< 31.6 nM
same,"viability, T/C",[1],113%
same,"viability, T/C",[2],83.9%
same,"viability, T/C",[3],94%
same,"viability, T/C",[4],41%
same,"viability, T/C",[5],16.9%
same,"viability, T/C",[6],12.4%
same,"viability, T/C",[7],103%
same,"viability, T/C",[8],78%
same,"viability, T/C",[9],78.4%
same,"viability, T/C",[10],40.6%
same,"viability, T/C",[11],19.6%
same,"viability, T/C",[12],12.5%
same,"viability, T/C",[13],83%
same,"viability, T/C",[14],78.5%
same,"viability, T/C",[15],65%
same,"viability, T/C",[16],36.9%
same,"viability, T/C",[17],17.4%
same,"viability, T/C",[18],14%
same,"viability, T/C",[19],83.9%
same,"viability, T/C",[20],45.3%
same,"viability, T/C",[21],58.1%
same,"viability, T/C",[22],29.8%
same,"viability, T/C",[23],16.1%
same,"viability, T/C",[24],13.6%
same,"viability, T/C",[25],25.6%
same,"viability, T/C",[26],21.4%
same,"viability, T/C",[27],23.6%
same,"viability, T/C",[28],19.1%
same,"viability, T/C",[29],17.5%
same,"viability, T/C",[30],16.6%
same,"viability, T/C",[31],35%
same,"viability, T/C",[32],28.6%
same,"viability, T/C",[33],29.3%
same,"viability, T/C",[34],20.1%
same,"viability, T/C",[35],20.9%
same,"viability, T/C",[36],14.5%
CC1COCCN1c1cc(C2(O)CC3CCC(C2)O3)c2cnn(-c3ccn[nH]3)c2n1 (centres undefined) + Cc1[nH]c2ccc(F)cc2c1-c1nc2c3cccnc3c3ncccc3c2[nH]1,IC50,second compound 0.0316 µM,70.6 nM
same,IC50,second compound 0.1 µM,63.3 nM
same,IC50,second compound 0.316 µM,59.2 nM
same,IC50,second compound 1 µM,< 31.6 nM
same,IC50,second compound 3.16 µM,< 31.6 nM
same,IC50,second compound 10 µM,< 31.6 nM
same,"viability, T/C",[1],82.9%
same,"viability, T/C",[2],33.8%
same,"viability, T/C",[3],18.5%
same,"viability, T/C",[4],7.11%
same,"viability, T/C",[5],3.67%
same,"viability, T/C",[6],1.06%
same,"viability, T/C",[7],71.2%
same,"viability, T/C",[8],35.3%
same,"viability, T/C",[9],18.7%
same,"viability, T/C",[10],8.6%
same,"viability, T/C",[11],3.75%
same,"viability, T/C",[12],1.19%
same,"viability, T/C",[13],67.1%
same,"viability, T/C",[14],36.1%
same,"viability, T/C",[15],15.7%
same,"viability, T/C",[16],8.55%
same,"viability, T/C",[17],4.01%
same,"viability, T/C",[18],1.3%
same,"viability, T/C",[19],32%
same,"viability, T/C",[20],26%
same,"viability, T/C",[21],14.9%
same,"viability, T/C",[22],8.44%
same,"viability, T/C",[23],3.77%
same,"viability, T/C",[24],1.61%
same,"viability, T/C",[25],17.9%
same,"viability, T/C",[26],14.8%
same,"viability, T/C",[27],10.7%
same,"viability, T/C",[28],7.29%
same,"viability, T/C",[29],3.77%
same,"viability, T/C",[30],1.49%
same,"viability, T/C",[31],24.6%
same,"viability, T/C",[32],21.4%
same,"viability, T/C",[33],15.2%
same,"viability, T/C",[34],8.61%
same,"viability, T/C",[35],4.18%
same,"viability, T/C",[36],1.5%
